BindingDB's records for PubMed 39167893 (University of Petroleum and Energy Studies)

Biological target: KRas/Son of Sevenless Homolog 1 (Homo sapiens, UniProt P01116+Q07889)
Assay: Inhibition of KRAS G12D mutant/SOS1 (unknown origin) interaction by TR-FRET assay

KRas/Son of Sevenless Homolog 1, sequence (P01116 whole entry G12D): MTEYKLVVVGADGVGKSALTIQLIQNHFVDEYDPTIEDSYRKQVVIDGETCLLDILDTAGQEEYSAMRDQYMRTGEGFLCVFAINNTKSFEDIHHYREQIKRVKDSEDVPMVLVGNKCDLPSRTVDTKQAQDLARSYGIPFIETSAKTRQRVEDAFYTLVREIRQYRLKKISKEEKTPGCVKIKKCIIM
KRas/Son of Sevenless Homolog 1, sequence (Q07889 whole entry): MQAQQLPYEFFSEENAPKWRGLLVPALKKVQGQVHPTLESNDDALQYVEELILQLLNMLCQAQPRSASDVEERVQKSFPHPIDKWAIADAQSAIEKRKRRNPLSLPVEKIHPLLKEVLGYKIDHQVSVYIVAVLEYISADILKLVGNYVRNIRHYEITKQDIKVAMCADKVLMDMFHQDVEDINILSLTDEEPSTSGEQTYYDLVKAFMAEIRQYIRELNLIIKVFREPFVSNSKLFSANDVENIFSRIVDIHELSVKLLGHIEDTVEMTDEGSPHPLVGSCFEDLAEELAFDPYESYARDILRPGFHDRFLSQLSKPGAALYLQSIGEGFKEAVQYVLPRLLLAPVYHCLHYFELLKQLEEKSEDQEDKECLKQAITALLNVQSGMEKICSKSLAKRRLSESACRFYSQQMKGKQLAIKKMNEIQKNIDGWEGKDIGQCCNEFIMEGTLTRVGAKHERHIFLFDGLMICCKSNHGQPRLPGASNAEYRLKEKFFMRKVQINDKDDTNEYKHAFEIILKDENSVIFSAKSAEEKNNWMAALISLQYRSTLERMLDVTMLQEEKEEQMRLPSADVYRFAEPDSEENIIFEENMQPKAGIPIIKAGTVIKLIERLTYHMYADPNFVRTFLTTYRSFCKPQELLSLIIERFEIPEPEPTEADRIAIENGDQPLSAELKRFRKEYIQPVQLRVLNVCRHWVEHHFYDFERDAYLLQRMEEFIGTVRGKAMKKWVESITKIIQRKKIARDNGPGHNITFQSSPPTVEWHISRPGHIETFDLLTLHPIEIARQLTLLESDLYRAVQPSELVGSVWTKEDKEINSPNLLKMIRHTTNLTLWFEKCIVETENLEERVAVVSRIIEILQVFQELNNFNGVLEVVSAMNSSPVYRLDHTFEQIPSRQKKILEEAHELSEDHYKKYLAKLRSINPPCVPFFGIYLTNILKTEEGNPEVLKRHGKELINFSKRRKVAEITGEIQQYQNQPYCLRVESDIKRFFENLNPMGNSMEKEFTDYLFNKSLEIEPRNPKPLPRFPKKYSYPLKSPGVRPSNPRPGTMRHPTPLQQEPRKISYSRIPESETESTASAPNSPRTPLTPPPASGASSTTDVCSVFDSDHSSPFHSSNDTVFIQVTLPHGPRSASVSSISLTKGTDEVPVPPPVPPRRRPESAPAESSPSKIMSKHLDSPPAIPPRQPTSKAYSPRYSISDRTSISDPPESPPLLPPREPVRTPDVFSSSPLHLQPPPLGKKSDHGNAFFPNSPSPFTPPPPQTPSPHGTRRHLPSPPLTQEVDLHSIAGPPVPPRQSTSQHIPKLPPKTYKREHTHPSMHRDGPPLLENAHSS

Compound: Cn1cnc(Cn2ccc3ccc(CNCc4[nH]c5ccccc5c4[C@H]4NC(=O)c5ccc(O)cc54)cc32)c1
- IC50: 450 nM
